Tests used:
[1] = Catalytic AOP pretreatment of alkali-extracted switchgrass, then enzymatic hydrolysis (glucose yield); set-up: species or system Panicum virgatum; conditions: for Glucose yield of enzymatic hydrolysis (% of theoretical maximum): 24 hr AOP pretreatment of AESG, catalyst concentration per table
Procedure: Screening of various metal ligand complexes (hereinafter “catalysts”) was performed via catalytic alkaline oxidative pretreatment (AOP) pretreatment of alkali-extracted switchgrass (AESG). To prepare AESG, 80 grams of untreated switchgrass (Panicum virgatum, cv. Cave-In-Rock, hammer milled to pass a 5-mm screen, and stored at a moisture content of approximately 5%) was soaked in an aqueous solution of 5 g/L NaOH at 80° C. for 2 hrs. The weight-to-volume (w/v) solids loading of switchgrass during alkaline extraction was 10% (e.g., 10 g of biomass in 100 mL NaOH solution). […] The washed solids was recovered as AESG and air-dried for over 7 days.
[Al(III)(3,5-^tBu2-salophen)Cl] [3,5-^tBu2-salophen=N,N′-bis(3,5-di-tert-butylsalicylidene)-1,2-phenylenediamine], [Zn(II)(BPPA)Cl]Cl [BPPA=N,N-bis(6-pivaloylamido-2-pyridylmethyl)-N-(2-pyridylmethyl)amine], and [NEt4][Fe(III)(bpb)Cl2]
To study the effect of catalytic AOP pretreatment on AESG, pretreatment was performed in a 100 g/L aqueous suspension of AESG in the presence of each catalyst. […] After 24 hrs of incubation at 30° C. without mixing, the pretreated switchgrass slurry was washed using deionized water to remove the alkaline phosphate buffer.
The enzymatic digestibility of AOP-pretreated switchgrass was estimated by the yield of glucose during the enzymatic hydrolysis of AOP pretreated AESG. The percentage yield was calculated on the basis of the glucan content in AESG prior to catalytic AOP pretreatment.
For enzymatic hydrolysis, 500 μL of 1 M Na-citrate buffer (pH 5) and 40 μL of 10 mM tetracycline (Sigma-Aldrich) were added to AOP-AESG that was not dried after catalytic AOP pretreatment. Accellerase 1500 (42 FPU/mL; Danisco-Genencor, Palo Alto, Calif.) was added at 50 mg protein per gram of glucan in AESG. The total volume of the mixture (solid and liquid) was adjusted with deionized water to reach a 5% (w/v) solids concentration, and the samples were incubated at 50° C. during hydrolysis.

[2] = Catalyst screening with multi-ligand metal complexes: enzymatic digestibility of hybrid poplar after AOP pretreatment; set-up: species or system Populus nigra var. charkoviensis×caudina cv. NE-19; conditions: FIG. 1
Procedure: Metal complexes (hereinafter “metal catalysts”) containing multiple or single metal coordinating ligands were tested. The metal catalysts tested included copper catalysts having a second metal coordinating ligand substituted for at least a portion of the 2,2′-bipyridine. These catalysts were evaluated for their performance in further enhancing the efficacy of AOP pretreatment of hybrid poplar. Ligands involved in the screening included histidine, glycine, di(2-picolyl)amine (dipica, 97%), 1,4,7-triazacyclononane (TACN, 95%), 2,2′;6′,2″-terpyridine (Terpy, 98%), 1,10-phenanthroline (phen, ≥99%), and tris(2-pyridylmethyl)amine (TPA, 98%, obtained from Sigma-Aldrich and Acros Organics/0). An iron 2,2′-bipyridine complex was prepared by mixing ferrous sulfate heptahydrate with 2,2′-bipyridine in an aqueous solution, and this iron complex was also tested.
The hybrid poplar (Populus nigra var. charkoviensis×caudina cv. NE-19) used in this testing was grown at the University of Wisconsin Arlington Agricultural Research Station. The hybrid poplar was harvested in 2011 and debarked using methods known in the art at the University of Wisconsin, Madison to produce heartwood and sap wood (different parts of the wood stem which can be differentiated via chemical testing). […]

[3] = Metal-catalyzed AOP pretreatment of chelated woody biomass, then enzymatic hydrolysis; conditions: [metal]:[bpy]=2 mM:4 mM; versus Mn-AOP and Fe-AOP; FIG. 30
Procedure: Three different pretreatment strategies were tested on each of the biomass samples: alkali only, alkaline hydrogen peroxide (AOP), and copper-catalyzed AOP (Cu-AOP). In all cases, 0.51 g of biomass (approximately 0.5 g dry basis; about 3 to about 5% moisture content) was pretreated in a total of 5.0 mL aqueous solution (10% solids loading). For alkali-only pretreatment, the solution contained 50 mg NaOH (100 mg NaOH/g biomass), while AOP pretreatment also contained 150 μL of 30% H2O2 (100 mg H2O2/g biomass). […]
Following pretreatment, 0.5 mL of 1 M citric acid buffer (pH 4.8) was added to the pretreated slurry, and the slurry was slowly titrated with 72% (w/w) H2SO4 to adjust the pH to 5.0 prior to enzymatic hydrolysis. […] The protein concentrations of the stock enzyme cocktails were quantified as y described in X. Gao, R. Kumar, S. Singh, B. A. Simmons, V. Balan, B. E. Dale and C. […]
Following enzymatic hydrolysis, the solid and liquid phases were separated by centrifugation, and the amount of glucose and xylose released into the aqueous phase was quantified by HPLC (Agilent 1260 Series equipped with an Aminex® HPX-87H column operating at 65° C., a mobile phase of 0.05 M H2SO4, a flow rate of 0.6 mL/min, and detection using an Agilent 1260 infinity refractive index detector). […]

## copper(II) 2,2′-bipyridine complex [Cu(bpy), L/M = 3:1]
[1]; pH 10, 24 hrs hydrolysis
  Glucose yield of enzymatic hydrolysis (% of theoretical maximum): 38.67 ± 0.3 % of theoretical maximum
[1]; pH 10, 72 hrs hydrolysis
  Glucose yield of enzymatic hydrolysis (% of theoretical maximum): 42.98 ± 0.88 % of theoretical maximum
[1]; pH 11, 24 hrs hydrolysis
  Glucose yield of enzymatic hydrolysis (% of theoretical maximum): 41.65 ± 0.14 % of theoretical maximum
[1]; pH 11, 72 hrs hydrolysis
  Glucose yield of enzymatic hydrolysis (% of theoretical maximum): 44.97 ± 0.42 % of theoretical maximum
[1]; pH 11.5, versus no catalyst
  Improvement in enzymatic digestibility of AOP pretreated AESG: very moderate improvement
[1]; pH 13, 24 hrs hydrolysis
  Glucose yield of enzymatic hydrolysis (% of theoretical maximum): 41.56 ± 0.06 % of theoretical maximum
[2]
  Performance in enhancing AOP pretreatment of hybrid poplar (enzymatic digestibility): superior performance among all candidates
[3]
  Enzymatic digestibility after metal-catalyzed AOP: significantly higher enzymatic digestibility than the addition of either Mn(bpy) or Fe(bpy) complexes

Source: patent US11530458B2, “Methods of using multi-ligand metal complexes to perform oxidative catalytic pretreatment of lignocellulosic biomass” (Board of Trustees of Michigan State University, priority 2014, dated 2022)
